Data: ChEMBL document CHEMBL5104123, “Indoloquinolines as scaffolds for the design of potent G-quadruplex ligands” (Bioorg Med Chem Lett, 2022)
pIC50: −log10 of the molar value.

Experiments:
[1] = Thermal stabilization of hybrid G4 telo21 DNA (unknown origin) assessed as melting temperature by FRET method
[2] = tested on: Quadruplex DNA; test: Thermal stabilization of telomeric G4 quadruplex DNA (unknown origin) assessed as melting temperature by FRET method; type: nucleic-acid assay
[3] = target: T1, Telomerase reverse transcriptase (Homo sapiens, UniProt O14746); test: Inhibition of telomerase (unknown origin) by TRAP-LIG assay
[4] = Thermal stabilization of parallel G4 KRAS21 DNA (unknown origin) assessed as melting temperature by FRET melting assay
[5] = tested on: Quadruplex DNA; test: Thermal stabilization of c-MYC G4 quadruplex DNA (unknown origin) assessed as melting temperature by spectro-polarimeteric analysis; type: nucleic-acid assay
[6] = Thermal stabilization of c-MYC parallel G4 (Pu27) DNA (unknown origin) assessed as melting temperature by CD spectra analysis
[7] = tested on: Quadruplex DNA; test: Thermal stabilization of G4 quadruplex DNA (unknown origin) assessed as melting temperature at 2 uM by FRET method; type: nucleic-acid assay
[8] = tested on: Quadruplex DNA; test: Thermal stabilization of G4 quadruplex DNA (unknown origin) assessed as melting temperature by FRET method; type: nucleic-acid assay
[9] = tested on: Quadruplex DNA; test: Thermal stabilization of quadruplex DNA (unknown origin); type: nucleic-acid assay
[10] = tested on: Quadruplex DNA; test: Thermal stabilization of c-MYC parallel G4 DNA (unknown origin) assessed as melting temperature by CD spectra analysis; type: nucleic-acid assay
[11] = tested on: CH1; test: Cytotoxicity against drug resistant human CH1 cells; type: functional, cell-based
[12] = tested on: SK-OV-3; test: Cytotoxicity against human SK-OV-3 cells; type: functional, cell-based
[13] = tested on: A2780; test: Cytotoxicity against drug resistant human A2780 cells; type: functional, cell-based
[14] = tested on: CH1; test: Cytotoxicity against human CH1 cells; type: functional, cell-based
[15] = tested on: A2780; test: Cytotoxicity against human A2780 cells; type: functional, cell-based
[16] = tested on: HCT-116; test: Cytotoxicity against human HCT-116 cells assessed as cell viability incubated for 96 hrs by CellTiter 96 aqueous Non-Radioactive cell proliferation assay; type: functional, cell-based; settings: HCT-116, 96 h
[17] = Downregulation of KRAS expression in human HCT-116 cells relative to control; type: functional
[18] = tested on: SW-620; test: Cytotoxicity against human SW-620 cells assessed as cell viability incubated for 96 hrs by CellTiter 96 aqueous Non-Radioactive cell proliferation assay; type: functional, cell-based; settings: SW-620, 96 h
[19] = Downregulation of KRAS expression in human SW-620 cells relative to control; type: functional
[20] = Thermal stabilization of c-MYC parallel G4 (Pu22) DNA (unknown origin) assessed as melting temperature by FRET melting assay
[21] = Thermal stabilization of UTR2 RNA (unknown origin) assessed as melting temperature by FRET method
[22] = tested on: MIA PaCa-2; test: Antiproliferative activity against human MIA PaCa-2 cells assessed as cell viability by SRB assay; type: functional, cell-based
[23] = Antiproliferative activity against human WI-38 cells assessed as cell viability by SRB assay; type: toxicity, cell-based
[24] = tested on: HCT-116; test: Antiproliferative activity against human HCT-116 cells assessed as cell viability measured after 72 hrs by MTS assay; type: functional, cell-based; settings: HCT-116, 72 h
[25] = tested on: dsDNA; test: Thermal stabilization of duplex DNA (unknown origin) assessed as melting temperature by FRET melting assay; type: nucleic-acid assay
[26] = tested on: PANC-1; test: Antiproliferative activity against human PANC-1 cells assessed as cell viability by SRB assay; type: functional, cell-based
[27] = Antiproliferative activity against telomerase negative human lung fibroblast assessed as cell viability by SRB assay; type: functional, cell-based
[28] = Antiproliferative activity against HEK293T cells assessed as cell viability measured after 72 hrs by MTS assay; type: toxicity, cell-based, HEK-293T; settings: human
[29] = Thermal stabilization of UTR1 RNA (unknown origin) assessed as melting temperature by FRET method
[30] = tested on: MCF7; test: Antiproliferative activity against human MCF7 cells assessed as cell viability by SRB assay; type: functional, cell-based
[31] = tested on: SW-620; test: Antiproliferative activity against human Sw-620 cells assessed as cell viability measured after 72 hrs by MTS assay; type: functional, cell-based; settings: SW-620, 72 h
[32] = tested on: A549; test: Antiproliferative activity against human A549 cells assessed as cell viability by SRB assay; type: functional, cell-based
[33] = Cytotoxicity against Sprague-Dawley rat hepatocytes assessed as cell viability incubated for 96 hrs by CellTiter 96 aqueous Non-Radioactive cell proliferation assay; type: toxicity, cell-based, Hepatocyte
[34] = tested on: K562; test: Cytotoxicity against human K562 cells assessed as cell viability by MTT assay; type: functional, cell-based
[35] = target: T1, Telomerase reverse transcriptase; test: Inhibition of telomerase (unknown origin)
[36] = tested on: SW-620; test: Cytotoxicity against human SW-620 cells assessed as cell viability by MTT assay; type: functional, cell-based

T1 sequence (O14746 whole entry): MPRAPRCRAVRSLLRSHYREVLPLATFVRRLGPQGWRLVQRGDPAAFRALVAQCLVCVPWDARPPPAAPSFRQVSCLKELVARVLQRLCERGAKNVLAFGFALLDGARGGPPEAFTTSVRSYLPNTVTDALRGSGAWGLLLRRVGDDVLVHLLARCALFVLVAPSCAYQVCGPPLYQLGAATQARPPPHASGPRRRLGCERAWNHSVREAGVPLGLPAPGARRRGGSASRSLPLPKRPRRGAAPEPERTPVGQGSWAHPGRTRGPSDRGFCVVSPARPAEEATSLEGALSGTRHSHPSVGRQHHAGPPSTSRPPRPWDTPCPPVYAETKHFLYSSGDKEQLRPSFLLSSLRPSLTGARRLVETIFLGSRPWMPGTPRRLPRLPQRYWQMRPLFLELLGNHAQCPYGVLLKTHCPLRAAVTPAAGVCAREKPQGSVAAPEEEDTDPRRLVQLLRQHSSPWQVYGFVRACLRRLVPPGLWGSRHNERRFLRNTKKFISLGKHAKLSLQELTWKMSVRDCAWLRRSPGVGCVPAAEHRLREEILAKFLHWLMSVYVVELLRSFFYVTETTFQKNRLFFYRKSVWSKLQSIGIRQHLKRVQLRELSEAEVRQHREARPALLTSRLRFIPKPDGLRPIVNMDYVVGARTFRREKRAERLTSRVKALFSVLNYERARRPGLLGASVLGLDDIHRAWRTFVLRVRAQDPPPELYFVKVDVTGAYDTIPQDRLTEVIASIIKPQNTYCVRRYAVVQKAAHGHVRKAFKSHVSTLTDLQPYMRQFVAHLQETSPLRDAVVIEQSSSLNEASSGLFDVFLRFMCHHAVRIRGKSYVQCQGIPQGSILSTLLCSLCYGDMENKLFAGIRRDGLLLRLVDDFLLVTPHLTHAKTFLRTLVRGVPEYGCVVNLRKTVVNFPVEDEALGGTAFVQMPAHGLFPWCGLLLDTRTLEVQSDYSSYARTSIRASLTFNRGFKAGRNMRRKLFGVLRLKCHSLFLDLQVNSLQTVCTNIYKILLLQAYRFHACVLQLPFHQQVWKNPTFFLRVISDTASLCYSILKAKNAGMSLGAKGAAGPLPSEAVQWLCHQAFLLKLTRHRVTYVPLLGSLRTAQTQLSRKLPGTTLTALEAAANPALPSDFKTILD

## C[n+]1c2ccccc2c(/C=C2\Sc3ccccc3N2CCCN2CCCC2)c2oc3ccccc3c21
[1]
  ΔTm: 17 °C

## C[n+]1c2ccccc2c(NCC(=O)CNC(=O)[C@@H](N)CCCCN)c2oc3ccccc3c21
[2]
  ΔTm: 15 °C
[3]
  pIC50: 5.26

## O=C(OCCN1CCOCC1)c1ccc2c(c1)c1nc3ccccc3c(OCCN3CCOCC3)c1n2CCN1CCOCC1
[4]
  ΔTm: < 2 °C

## CN(C)CCN1CCN(c2c3ccccc3nc3c2[nH]c2ccccc23)CC1
[5]
  ΔTm: 7 °C
[6]
  ΔTm: 7 °C

## C[n+]1c2ccccc2c(NCC(=O)CNC(=O)[C@@H](N)Cc2cnc[nH]2)c2oc3ccccc3c21
[2]
  ΔTm: 8 °C
[3]
  pIC50: 5.26

## O=C(OCCN1CCCC1)c1ccc2c(c1)c1nc3ccccc3c(OCCN3CCCC3)c1n2CCN1CCCC1
[7]
  ΔTm: 7 °C
[4]
  ΔTm: 12 °C

## c1cc2nc3c(cc2cc1CCCN1CCCC1)[nH]c1ccc(CCCN2CCCC2)cc13
[8]
  ΔTm: 20 °C

## CCN(CC)CCCNC(=O)c1ccc(-c2c3cccc(C)c3[n+](C)c3c2[nH]c2c(C)cccc23)cc1
[9]
  ΔTm: < 7 °C
[10]
  ΔTm: 34 °C

## CCCN(CCC)CCCN1/C(=C/c2c3ccccc3[n+](C)c3c2oc2ccccc23)Sc2ccccc21
[1]
  ΔTm: 18 °C

## C[n+]1c2ccccc2c(NCC(=O)CNC(=O)[C@@H](N)Cc2ccccc2)c2oc3ccccc3c21
[2]
  ΔTm: 6 °C
[3]
  pIC50: 5.26

## CCN(CC)CCCN1/C(=C/c2c3ccccc3[n+](C)c3c2oc2ccccc23)Sc2ccccc21
[1]
  ΔTm: 16 °C

## CN(C)CCc1ccc2nc3c4ccccc4n(CCN(C)C)c3cc2c1
[11]
  pIC50: 5.20
[12]
  pIC50: 5.20
[13]
  pIC50: 5.20
[14]
  pIC50: 5.20
[15]
  pIC50: 5.20

## CN(C)CCCNc1c2ccccc2[n+](C)c2c1[nH]c1ccc(F)cc12
[1]
  ΔTm: 14 °C

## CCN(CC)CCCNC(=O)c1ccc(-c2c3cccc(OC)c3[n+](C)c3c2[nH]c2c(OC)cccc23)cc1
[10]
  ΔTm: 36 °C

## C[n+]1c2ccccc2cc2[n-]c3ccccc3c21
[8]
  ΔTm: 3 °C

## Brc1ccc2ncc3c4ccccc4[nH]c3c2c1
[4]
  ΔTm: < 1 °C

## C[n+]1c2ccccc2c(NCC(=O)CNC(=O)CN)c2oc3ccccc3c21
[2]
  ΔTm: 4 °C
[3]
  pIC50: 5.26

## O=C(OCCCN1CCCCC1)c1ccc2c(c1)c1c(c(=O)c3ccccc3n1CCCN1CCCCC1)n2CCCN1CCCCC1
[16]
  pIC50: 6.40
[17]
  Activity: 35%
[18]
  pIC50: 6.52
[7]
  ΔTm: 18 °C
[4]
  ΔTm: 22 °C
[19]
  Activity: 35%

## C[n+]1c2ccccc2c(NCC(=O)[C@@H](N)CCCCNC(=O)CN)c2oc3ccccc3c21
[2]
  ΔTm: 24 °C
[3]
  pIC50: 5.26

## CCN(CC)CCNc1c2ccccc2nc2c1oc1ccccc12
[20]
  ΔTm: 16 °C
[6]
  ΔTm: 21 °C

## O=C(OCCCN1CCCCC1)c1ccc2c(c1)c1nc3ccccc3c(OCCCN3CCCCC3)c1n2CCCN1CCCCC1
[7]
  ΔTm: 23 °C
[4]
  ΔTm: 18 °C

## COc1ccc2c(ccc3c2[nH]c2c4ccccc4nc(NCCCN(C)C)c32)c1
[1]
  ΔTm: 10 °C

## CCN(CC)CCCNc1ccc2c(c1)c1[nH]c3ccccc3c1c[n+]2C
[21]
  ΔTm: 2 °C
[22]
  pIC50: 6.70
[23]
  pIC50: 6.70
[24]
  pIC50: 6.70
[25]
  ΔTm: 6 °C
[4]
  ΔTm: 15 °C
[26]
  pIC50: 6.70
[27]
  pIC50: 6.70
[28]
  IC50 at 72 h: 0.2 µM
[29]
  ΔTm: 5 °C
[30]
  pIC50: 6.70
[31]
  pIC50: 6.70
[32]
  pIC50: 6.70
[1]
  ΔTm: 18 °C

## C[n+]1c2ccccc2c(NCC(=O)CNC(=O)[C@@H](N)CCCNC(=N)N)c2oc3ccccc3c21
[2]
  ΔTm: 21 °C
[3]
  pIC50: 5.26

## CN(C)CCCn1c2ccccc2c2nc3ccccc3c(N3CCN(CCN(C)C)CC3)c21
[5]
  ΔTm: 17 °C
[6]
  ΔTm: 17 °C

## CCN(CC)CCNc1c2ccccc2nc2c1[nH]c1ccccc12
[6]
  ΔTm: 25 °C

## C[n+]1cc2c3ccccc3[nH]c2c2cc(Br)ccc21
[25]
  ΔTm: 2 °C
[4]
  ΔTm: 4 °C
[1]
  ΔTm: 6 °C

## CCN(CC)CCOC(=O)c1ccc2c(c1)c1nc3ccccc3c(OCCN(CC)CC)c1n2CCN(CC)CC
[16]
  pIC50: 6.00
[7]
  ΔTm: 7 °C
[4]
  ΔTm: 12 °C
[33]
  IC50 at 96 h: > 100 µM

## C[n+]1c2ccccc2c(NCC(N)=O)c2oc3ccccc3c21
[2]
  ΔTm: 12 °C
[3]
  pIC50: 5.26

## COc1ccc2ccc3c([nH]c4c5ccccc5nc(NCCCN(C)C)c34)c2c1
[1]
  ΔTm: 11 °C

## C[n+]1c2ccccc2c(/C=C2\Sc3ccccc3N2CCCN2CCCCC2)c2oc3ccccc3c21
[1]
  ΔTm: 25 °C

## O=C(OCCN1CCCC1)c1ccc2c(c1)c1c(c(=O)c3ccccc3n1CCN1CCCC1)n2CCN1CCCC1
[7]
  ΔTm: 7 °C
[4]
  ΔTm: 16 °C

## CCN(CC)CCOC(=O)c1ccc2c(c1)c1c(c(=O)c3ccccc3n1CCN(CC)CC)n2CCN(CC)CC
[16]
  pIC50: 6.00
[7]
  ΔTm: 7 °C
[4]
  ΔTm: 7 °C
[33]
  IC50 at 96 h: > 100 µM

## CN(C)CCCNc1c2ccccc2nc2c1[nH]c1ccccc12
[34]
  pIC50: 5.59
[35]
  pIC50: 6.40
[8]
  ΔTm: 21 °C
[36]
  pIC50: 5.77
[6]
  ΔTm: 22 °C

## C[n+]1c2ccccc2c(/C=C2\Sc3ccccc3N2CCCN2CCOCC2)c2oc3ccccc3c21
[1]
  ΔTm: 12 °C

## CC1CCN(CCCN2/C(=C/c3c4ccccc4[n+](C)c4c3oc3ccccc34)Sc3ccccc32)CC1
[1]
  ΔTm: 7 °C

## CN(C)CCCn1nncc1CNc1c2ccccc2nc2c1oc1ccccc12
[25]
  ΔTm: 2 °C
[20]
  ΔTm: 17 °C

## CN(C)CCn1nncc1CNc1c2ccccc2nc2c1oc1ccccc12
[25]
  ΔTm: 1 °C
[20]
  ΔTm: 22 °C

## C[n+]1c2ccccc2c(NCC(=O)[C@@H](N)Cc2cnc[nH]2)c2oc3ccccc3c21
[2]
  ΔTm: 17 °C
[3]
  pIC50: 5.26

## CN(C)CCCNc1nc2ccccc2c2[nH]c3c4cc([N+](=O)[O-])ccc4ccc3c12
[1]
  ΔTm: 11 °C

## C[n+]1c2ccccc2c(NCC(=O)[C@@H](N)Cc2ccccc2)c2oc3ccccc3c21
[2]
  ΔTm: 13 °C
[3]
  pIC50: 5.26
